PMC9496819 (Cancers, 2022)

How the values were obtained:
OVCAR8 PTX R P cells = test: Presto Blue cell viability assay, single drugs and Paclitaxel combinations (Chou–Talalay, Bliss, HSA analysis); settings: for Cellular viability (%) Media: alone or combined
Method: (§1) To determine the effect of single and combination drug treatments on the cellular viability of cell lines, a resazurin-based assay—Presto Blue (PB)—was performed. Briefly, 5 × 10^3 cells/well were seeded into a 96-well plate in complete media, incubated at 37 °C and 5% CO2 and allowed to adhere overnight prior to drug exposure. After 24 h, cells were exposed to increasing concentrations of drugs and incubated under the same conditions. After 48 h, culture medium was removed, and 50 μL/well of PrestoBlue^TM Cell Viability Reagent 1× (ThermoFisher Scientific) was added. Cells were incubated for 45 min, protected from light, at 37 °C and 5% CO2.
(§2) The IC50 values were first obtained for each drug alone for OVCAR8, OVCAR8 PTX R P and HOSE6.3 cell lines. […] A mutually exclusive model, assuming that drugs act through […] mechanisms, was used for this analysis. […] The CI is a quantitative representation of pharmacological interactions (i.e., CI < 1, synergism; =1, additive interactions; and >1, antagonism), plotted on y-axis as a function of effect level (Fa) on the x-axis to assess drug synergism between drug combinations. Additionally, we estimated the expected drug combination responses based on the Bliss Independence and Highest Single Agent (HSA) reference models using SynergyFinder 2.0 Software. Positive and negative synergy score values denote synergy and antagonism, respectively. The cNMF algorithm implemented in SynergyFinder 2.0 was used for estimation of outlier measurements.

OVCAR8 cells = test: as above; settings: for Cellular viability (%) Media: OVCAR8, 48 h, alone or combined
Method: as §1, §2

[1] = Presto Blue cell viability assay in non-tumoral cells, single drugs and Paclitaxel combinations (Chou–Talalay, Bliss, HSA analysis); settings: human, HOSE6.3 cells (non-tumoral)
Method: as §1, §2

HOSE6.3 cells = test: as above; settings: for IC50 (in words) / IC50: 48 h; for IC50 (in words): considered concentration ranges; for Cellular viability (%) Media: HOSE6.3, 48 h, alone or combined
Method: as §1, §2

[2] = OVCAR8 PTX R P, 48 h, 0.25 x IC50 of each drug
[3] = OVCAR8 PTX R P, 48 h, 0.5 x IC50 of each drug
[4] = OVCAR8 PTX R P, 48 h, 2 x IC50 of each drug
[5] = OVCAR8 PTX R P, 48 h, IC50 of each drug

Compound	IC50 (OVCAR8 PTX R P cells; Homo sapiens, OVCAR-8, 48 h)	Cellular viability (%) Media (OVCAR8 PTX R P cells; [2])	Cellular viability (%) Media (OVCAR8 PTX R P cells; [3])	Cellular viability (%) Media (OVCAR8 PTX R P cells; [4])	Cellular viability (%) Media (OVCAR8 PTX R P cells; [5])	IC50 (OVCAR8 cells; Homo sapiens, OVCAR-8, 48 h)	Cellular viability (%) Media (OVCAR8 cells; 0.25 x IC50 of each drug)	Cellular viability (%) Media (OVCAR8 cells; 0.5 x IC50 of each drug)	Cellular viability (%) Media (OVCAR8 cells; 2 x IC50 of each drug)	Cellular viability (%) Media (OVCAR8 cells; IC50 of each drug)	IC50 (in words) (HOSE6.3 cells; HOSE6.3, single agent)	other results
O=C(O)C[C@H](O)C[C@H](O)/C=C/c1c(C2CC2)nc2ccccc2c1-c1ccc(F)cc1 [Pitavastatin]	0.85 ± 0.142 µM	59.998%	50.426%	28.330%	45.406%	0.801 ± 0.061 µM	61.378%	51.912%	27.970%	45.624%	not obtaining IC50 values in the considered concentration ranges	viability at 48 h, 0.25 x IC50 [1]: 81.8%; viability at 48 h, 0.5 x IC50 [1]: 76.5%; viability at 48 h, 1 x IC50 [1]: 68.5%; viability at 48 h, 2 x IC50 [1]: 65.9%; viability at 48 h, 4 x IC50 [1]: 61.4%
Ivermectin	–	81.152%	65.026%	0.966%	47.496%	–	77.004%	69.934%	0.759%	46.412%	–	Cellular viability (%) Media (OVCAR8 PTX R P cells; OVCAR8 PTX R P, 48 h, 4 x IC50 of each drug): 1.370%; IC50 (OVCAR8 PTX R P cells; OVCAR8 PTX R P, single agent, 48 h): 15.5 ± 1.86 µM; Cellular viability (%) Media (OVCAR8 cells; 4 x IC50 of each drug): 0.867%; IC50 (OVCAR8 cells; OVCAR8, single agent, 48 h): 16 ± 2.91 µM; Cellular viability (%) Media (HOSE6.3 cells; 0.5 x IC50 of each drug): 99.694%; Cellular viability (%) Media (HOSE6.3 cells; 2 x IC50 of each drug): 0.539%; Cellular viability (%) Media (HOSE6.3 cells; 4 x IC50 of each drug): 0.000%; Cellular viability (%) Media (HOSE6.3 cells; IC50 of each drug): 53.462%; IC50 (HOSE6.3 cells; HOSE6.3, single agent): 12.6 ± 2.19 µM
CN(C)C(=N)N=C(N)N [Metformin]	1460 ± 193 µM	–	–	–	–	1500 ± 169 µM	–	–	–	–	not obtaining IC50 values in the considered concentration ranges	–
CCC(C)n1ncn(-c2ccc(N3CCN(c4ccc(OCC5COC(Cn6cncn6)(c6ccc(Cl)cc6Cl)O5)cc4)CC3)cc2)c1=O (stereo not drawn) [Itraconazole]	35.6 ± 0.48 µM	–	–	–	–	39.1 ± 3.38 µM	–	–	–	–	–	IC50 (HOSE6.3 cells; Homo sapiens): 38.6 ± 5.11 µM
NCCCC(O)(P(=O)(O)O)P(=O)(O)O [Alendronate]	196 ± 20.2 µM	–	–	–	–	219 ± 13.6 µM	–	–	–	–	not obtaining IC50 values in the considered concentration ranges	–
